Results on two compounds are retold here after patent publication US20260275279A1, “THYROCYTES AND USES THEREOF” (LifeNet Health, priority 2023, published 2026).

One series relates to T3/T4 synthesis. The series is described as follows: Example 10 3D culture TDC screening, T3/T4 synthesis by ELISA and LC-MS/MS. Type of series: cell-based, human. As for the experimental part:
For TDC Screening, these procedures were followed: • Prepare the Plate by adding 50 μL of 10 mg/ml of Matrigel, then polymerize the Matrigel at 37° C. for 1 hr. • Thaw the thyrocytes in 37° C. water bath. • Resuspend the cells in humanized medium (h7H). • Seed the cells at the optimal seeding density, 7,500 cells per 0.32 cm2. • Culture the cells in h7H medium. • Exchange the medium on Day 2, 5, 7, 9 and 12. • Start stimulating the cells with activators (e.g., bTSH, hTSH, M22, K!-18, ML-109) on Day 2 • Treatment with the activator is between Day 2-14 • Compound treatment starts on Day 9. • 8 doses: Concentrations (10^−10 to 10^−4M) • Serial dilutions were made in DMSO (Dilution factor 1:1000) • Compounds were added to the media • Day 12: Refresh media with the compound • Day 14: Collect the supernatant for the T4 analysis by ELISA and LC-MS/MS.

A further series deals with T4 synthesis. As to the kind of experiment: Reference chemical evaluation: inhibition of T4 synthesis in 3D microtissue cultures. Type of series: cell-based, human. The note with it: for effect on T4 levels: 0.0001 to 100 μM; for IC50: 120-h treatment days 9-14, 1 mIU/mL bovine TSH, 7,500 cells/well, read-out: Average half-maximal inhibitory concentrations (IC50), T4 synthesis. How it is done:
3D cultures with cell seeding density of 7,500 cells/well were treated with 1 mIU/mL bovine TSH on days 2, 5, 7, 9, and 12. For each studied compound, cells were dosed on days 9 and 12 with concentrations ranging from 0.0001 to 100 μM across a log-fold titration. T4 levels were measured as described. All measured data were normalized to DMSO vehicle control.
Images are shown from representative donor lots. Values were normalized to the number of cells seeded per well. Significance was calculated in MiniTab (State College, PA) using either Student's t-test between 2 groups or One-way ANOVA with Tukey post hoc testing when comparing 3 groups or more to determine statistical significance with 95% confidence and *p<0.05 for statistical significance. GraphPad Prism v.9 was used to determine EC50 and EC90. Four-parameter nonlinear regression fit was used to determine the half-maximal inhibition concentration IC50 using GraphPad Prism v.9.
Established antagonists of thyroid hormone production were selected to determine the concentration-response profiles in 3D cultures for TDC screening purposes (FIG. 21).

The test system of series [1] is 3D thyrocyte cell culture. To be noted: 1.0×10^−10 to 1.0×10^−4 M.
Procedure: After collecting media for T4 measurement, backing tape was put on the back of the 3D culture 96-well plate. 100 μL of a 1:1 mixture of CellTiter-Glo® Luminescent Cell Viability Assay (Promega, Madison, WI) and HTCM was added into each well of the 3D cell culture plate. The plate was covered and shaken for 2 minutes on an orbital plate shaker at 500 rpm followed by a 10 minute incubation in the dark without shaking. Luminescence reading was recorded using a CLARIOStar (BMG Labtech) microplate reader.

Where two headings read alike, the source gives them in different places.

Regarding `Cn1cc[nH]c1=S` [methimazole, Methimazole], the T3/T4 synthesis result with T3/T4 synthesis is listed as “inhibited”. Also, the “effect on T4 levels” value in the series on T4 synthesis was “consistent concentration-dependent decrease in T4 levels”.

Consider `CCCc1cc(=O)[nH]c(=S)[nH]1` [6-propyl-2-thiouracil], for which the T3/T4 synthesis result in the series on T3/T4 synthesis is “inhibited”. Besides, in the series on T4 synthesis, the “effect on T4 levels” value is given as “consistent concentration-dependent decrease in T4 levels”. Also, the IC50 in the series on T4 synthesis came out at 767 nM; in the series on T4 synthesis (Homo sapiens, 120 h), 659 nM. In addition, the “toxicity of inhibitor concentrations to the cells” value in series [1] was “not toxic to the cells with the exception of 6-propyl-2-thiouracil for 2021159 at the highest dose”.
